In ChEMBL document CHEMBL1151018, “Studies On uro'gen III synthase with modified bilanes” (Bioorg Med Chem Lett, 1994):
Activity calls are given as the source filed them. The rule behind the calls is not given here.

The molecules below were run against T1, Uroporphyrinogen-III synthase (Homo sapiens) (UniProt P10746) (assay: Compound was tested for its activity as inhibitor of Uroporphyrinogen III synthase; Yes).
T1 sequence (whole entry): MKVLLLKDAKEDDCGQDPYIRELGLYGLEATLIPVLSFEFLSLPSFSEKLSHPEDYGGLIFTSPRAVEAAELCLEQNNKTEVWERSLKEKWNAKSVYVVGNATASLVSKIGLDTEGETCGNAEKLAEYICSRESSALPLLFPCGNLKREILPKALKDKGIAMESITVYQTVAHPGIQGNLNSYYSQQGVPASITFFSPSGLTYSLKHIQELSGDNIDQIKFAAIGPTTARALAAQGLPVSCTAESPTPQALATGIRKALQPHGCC

SMILES	Activity
O=C(O)CCc1c(Br)[nH]c(Cc2[nH]c(Cc3[nH]c(Cc4[nH]c(CO)c(CC(=O)O)c4CCC(=O)O)c(CC(=O)O)c3CCC(=O)O)c(CC(=O)O)c2CCC(=O)O)c1CC(=O)O	Active
CC(O)c1[nH]c(Cc2[nH]c(Cc3[nH]c(Cc4[nH]cc(CCC(=O)O)c4CC(=O)O)c(CCC(=O)O)c3CC(=O)O)c(CCC(=O)O)c2CC(=O)O)c(CCC(=O)O)c1CC(=O)O (configuration not stated)	Active
N#Cc1[nH]c(Cc2[nH]c(Cc3[nH]c(Cc4[nH]c(CO)c(CC(=O)O)c4CCC(=O)O)c(CC(=O)O)c3CCC(=O)O)c(CC(=O)O)c2CCC(=O)O)c(CC(=O)O)c1CCC(=O)O	Active

The next lines start with the values.

Activity	SMILES
Active	Cc1[nH]c(Cc2[nH]c(Cc3[nH]c(Cc4[nH]c(CO)c(CC(=O)O)c4CCC(=O)O)c(CC(=O)O)c3CCC(=O)O)c(CC(=O)O)c2CCC(=O)O)c(CC(=O)O)c1CCC(=O)O
Active	Cn1cc(CCC(=O)O)c(CC(=O)O)c1Cc1[nH]c(Cc2[nH]c(Cc3[nH]c(CO)c(CC(=O)O)c3CCC(=O)O)c(CC(=O)O)c2CCC(=O)O)c(CC(=O)O)c1CCC(=O)O
Active	Cn1c(Cc2[nH]cc(CCC(=O)O)c2CC(=O)O)c(CCC(=O)O)c(CC(=O)O)c1Cc1[nH]c(Cc2[nH]c(CO)c(CC(=O)O)c2CCC(=O)O)c(CC(=O)O)c1CCC(=O)O

The molecules below were run against T1, Uroporphyrinogen-III synthase (Homo sapiens) (assay: Compound was tested for its activity as substrate of Uroporphyrinogen III synthase; Yes).

Activity	SMILES
Active	O=C(O)CCc1c(CC(=O)O)c[nH]c1Cc1[nH]c(Cc2[nH]c(Cc3[nH]c(CO)c(CC(=O)O)c3CCC(=O)O)c(CC(=O)O)c2CCC(=O)O)c(CC(=O)O)c1CCC(=O)O
Active	CCc1c[nH]c(Cc2[nH]c(Cc3[nH]c(Cc4[nH]c(CO)c(CC(=O)O)c4CCC(=O)O)c(CC(=O)O)c3CCC(=O)O)c(CC(=O)O)c2CCC(=O)O)c1CC(=O)O
Active	O=C(O)CCc1c[nH]c(Cc2[nH]c(Cc3[nH]c(Cc4[nH]c(CO)c(CC(=O)O)c4CCC(=O)O)c(CC(=O)O)c3CCC(=O)O)c(CC(=O)O)c2CCC(=O)O)c1CC(=O)O
Active	O=C(O)CCc1c[nH]c(Cc2[nH]c(Cc3[nH]c(Cc4[nH]c(CO)c(CC(=O)O)c4CCC(=O)O)c(CC(=O)O)c3CCC(=O)O)c(CCC(=O)O)c2CC(=O)O)c1CC(=O)O
Active	O=C(O)CCCc1c[nH]c(Cc2[nH]c(Cc3[nH]c(Cc4[nH]c(CO)c(CC(=O)O)c4CCC(=O)O)c(CC(=O)O)c3CCC(=O)O)c(CC(=O)O)c2CCC(=O)O)c1CC(=O)O

Each molecule was assayed against T1, Uroporphyrinogen-III synthase (Homo sapiens) (assay: Compound was tested for its activity as substrate of Uroporphyrinogen III synthase; Poor substrate).

Activity	SMILES
(+)	Cc1c(CCC(=O)O)c[nH]c1Cc1[nH]c(Cc2[nH]c(Cc3[nH]c(CO)c(CC(=O)O)c3CCC(=O)O)c(CC(=O)O)c2CCC(=O)O)c(CC(=O)O)c1CCC(=O)O
